Active and inactive are the calls of the source. The calls are words filed in the database; no cut-off is given here. Where only a bound is given, the exact number is not on record here.

Broadly, the bioavailability is the share of a dose that reaches the circulation, judged against a reference dose that is usually intravenous. What is called clearance is the rate of elimination divided by the concentration. Low readings indicate a low capacity for elimination, high ones a high capacity for elimination.

In series [1] the test system is Rattus norvegicus. The experiment in a line: Androgenic activity in ORX Sprague-Dawley rat assessed as restoration of prostate weight at 1000 ug/day delivered at constant rate for 14 days via subcutaneous osmotic pumps. It counts as functional, tissue-based.
The nature of series [2]: Oral bioavailability in beagle dog at 10 mg/kg administered via capsule after 72 hrs by HPLC analysis. In kind it is ADME, organism-based, Canis lupus familiaris. The settings on record: in vivo.
Series [3] is described as follows: Plasma clearance in beagle dog at 3 mg/kg, iv after 72 hrs by HPLC analysis. In kind it is ADME, organism-based, Canis lupus familiaris.
The subject of series [4] is Rattus norvegicus. The experiment in a line: Effect on serum LH in ORX Sprague-Dawley rat at 0.3 mg/day delivered at constant rate for 14 days via subcutaneous osmotic pumps. It counts as ADME. The note with it: sc, 336 h.
For series [5], the system named is Rattus norvegicus. The experiment in a line: Androgenic activity in ORX Sprague-Dawley rat assessed as restoration of prostate weight at 0.1 to 1 ug/day delivered at constant rate for 14 days via subcutaneous osmotic pumps. It counts as functional.
Series [6] can be described thus: Terminal half life in beagle dog at 3 mg/kg, iv after 72 hrs by HPLC analysis. In kind it is ADME, organism-based, Canis lupus familiaris. The settings on record: in vivo, read-out: beta t1/2 (converted).
A short description of series [7]: Oral bioavailability in beagle dog at 10 mg/kg administered via solution after 72 hrs by HPLC analysis. In kind it is ADME, organism-based, Canis lupus familiaris. The note with it: in vivo.
The subject of series [8] is Rattus norvegicus. The experiment in a line: Androgenic activity in ORX Sprague-Dawley rat assessed as restoration of seminal vesicles weight at 1000 ug/day delivered at constant rate for 14 days via subcutaneous osmotic pumps. It counts as functional, tissue-based.
The test system of series [9] is Rattus norvegicus. The experiment in a line: Anabolic activity in ORX Sprague-Dawley rat assessed as restoration of levator ani muscle weight at 0.1 to 1 ug/day delivered at constant rate for 14 days via subcutaneous osmotic pumps. In kind it is functional.
Series [10] concerns Rattus norvegicus. The experiment in a line: Effect on serum FSH in ORX Sprague-Dawley rat at 0.3 mg/day delivered at constant rate for 14 days via subcutaneous osmotic pumps. It counts as ADME. The note with it: sc, 336 h.
For series [11], the system named is Rattus norvegicus. Put plainly: Androgenic activity in ORX Sprague-Dawley rat assessed as restoration of seminal vesicles weight at 0.1 to 1 ug/day delivered at constant rate for 14 days via subcutaneous osmotic pumps. In kind it is functional.
Series [12] concerns Rattus norvegicus. Put plainly: Anabolic activity in ORX Sprague-Dawley rat assessed as restoration of levator ani muscle weight at 1000 ug/day delivered at constant rate for 14 days via subcutaneous osmotic pumps. It counts as functional, tissue-based.
A short description of series [13]: Toxicity in ORX Sprague-Dawley rat assessed as induction of toxicity signs at 0.1 to 1 ug/day delivered at constant rate for 14 days via subcutaneous osmotic pumps by diagnostic hematology test. The settings on record: in vivo, sc, 336 h.
Series [14] deals with Rattus norvegicus. Put plainly: Effect on spleen weight in ORX Sprague-Dawley rat at 0.1 to 1 ug/day delivered at constant rate for 14 days via subcutaneous osmotic pumps. The settings on record: in vivo, sc, 336 h. It counts as ADME, tissue-based.
A short description of series [15]: Toxicity in ORX Sprague-Dawley rat assessed as induction of toxicity signs at 0.1 to 1 ug/day delivered at constant rate for 14 days via subcutaneous osmotic pumps by visual examination test. The settings on record: in vivo, sc, 336 h.
Series [16] relates to Rattus norvegicus. Put plainly: Effect on lung weight in ORX Sprague-Dawley rat at 0.1 to 1 ug/day delivered at constant rate for 14 days via subcutaneous osmotic pumps. The note with it: sc, 336 h. It counts as ADME, tissue-based.
Series [17] relates to Rattus norvegicus. Put plainly: Suppression of serum FSH in ORX Sprague-Dawley rat at =>0.3 mg/day delivered at constant rate for 14 days via subcutaneous osmotic pumps. It counts as functional.
Series [18] relates to Rattus norvegicus. Put plainly: Effect on heart weight in ORX Sprague-Dawley rat at 0.1 to 1 ug/day delivered at constant rate for 14 days via subcutaneous osmotic pumps. In kind it is ADME, tissue-based. The settings on record: in vivo, sc, 336 h.

`CC(=O)Nc1ccc(OC[C@](C)(O)C(=O)Nc2ccc([N+](=O)[O-])c(C(F)(F)F)c2)cc1`: the result in [1], in series [8] and in series [12] was Active. For the same compound, the bioavailability in series [2] is 19%; in series [7], 38%. In [3], this compound came in with a clearance of 4.4 mL/min/kg. The Activity entry in [4] is “Non-Toxic”; in series [5], “Dose-dependent effect”; in series [9], “Dose-dependent effect”; in series [10] it was “Non-Toxic”; in series [11] it was “Dose-dependent effect”. Besides, the half-life in [6] was 4 h.

With `C[C@](O)(COc1ccc(F)cc1)C(=O)Nc1ccc([N+](=O)[O-])c(C(F)(F)F)c1`, the Activity result in series [13] is listed as “Non-Toxic”; in series [14], “Non-Toxic”; in series [5], below 40%; in series [15], “Non-Toxic”; in [11], below 40%; in [16] it was “Non-Toxic”. Besides, the Activity entry in series [18] is reported as “Non-Toxic”. The result in series [9] and in series [17] was Active.

For the origin of these results see ChEMBL document CHEMBL3881526, “Selective androgen receptor modulators and method of use thereof” (2007).
